# Test results taken from PubChem BioAssay (NCI).
#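 Five concentrations, 48 hours, 96-well plates. At the TGI there is no net growth.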
# Tests used:
# Test in all cases: DTP human tumour cell line panel, 48 h
# NCI-H460 lung = system: NCI-H460 lung
# SK-MEL-28 melanoma = system: SK-MEL-28 melanoma
# OVCAR-3 ovarian = system: OVCAR-3 ovarian
# HL-60(TB) leukemia = system: HL-60(TB) leukemia
# SNB-19 CNS = system: SNB-19 CNS
# HCC-2998 colon = system: HCC-2998 colon
# LOX IMVI melanoma = system: LOX IMVI melanoma
# SN12C renal = system: SN12C renal
# HT29 colon = system: HT29 colon
# OVCAR-5 ovarian = system: OVCAR-5 ovarian
# RPMI-8226 leukemia = system: RPMI-8226 leukemia
# SK-OV-3 ovarian = system: SK-OV-3 ovarian
# COLO 205 colon = system: COLO 205 colon
# PC-3 prostate = system: PC-3 prostate
# UO-31 renal = system: UO-31 renal
# 786-0 renal = system: 786-0 renal
# SK-MEL-2 melanoma = system: SK-MEL-2 melanoma
# M14 melanoma = system: M14 melanoma
# EKVX NSCLC = system: EKVX NSCLC
# UACC-62 melanoma = system: UACC-62 melanoma
# SW-620 colon = system: SW-620 colon
# ACHN renal = system: ACHN renal
# RXF 393 renal = system: RXF 393 renal
# MOLT-4 leukemia = system: MOLT-4 leukemia
# NCI-H23 lung = system: NCI-H23 lung
# NCI-H522 lung = system: NCI-H522 lung
# SF-539 CNS = system: SF-539 CNS
# NCI-H226 lung = system: NCI-H226 lung
# K-562 leukemia = system: K-562 leukemia
# HCT-15 colon = system: HCT-15 colon
# HOP-92 NSCLC = system: HOP-92 NSCLC
# MDA-MB-231 breast = system: MDA-MB-231 breast
# IGROV1 ovarian = system: IGROV1 ovarian
# SF-268 CNS = system: SF-268 CNS
# A498 renal = system: A498 renal
# OVCAR-8 ovarian = system: OVCAR-8 ovarian
# HOP-62 NSCLC = system: HOP-62 NSCLC
# SF-295 CNS = system: SF-295 CNS
# UACC-257 melanoma = system: UACC-257 melanoma
# CAKI-1 renal = system: CAKI-1 renal
# A549 NSCLC = system: A549 NSCLC
# MCF7 breast = system: MCF7 breast
# TK-10 renal = system: TK-10 renal
# MALME-3M melanoma = system: MALME-3M melanoma
# KM12 colon = system: KM12 colon
# MDA-N = system: MDA-N
# SK-MEL-5 melanoma = system: SK-MEL-5 melanoma
# HCT-116 colon = system: HCT-116 colon
# DU-145 prostate = system: DU-145 prostate
# T-47D breast = system: T-47D breast
# HS 578T breast = system: HS 578T breast
# BT-549 breast = system: BT-549 breast
# U251 CNS = system: U251 CNS
# SR leukemia = system: SR leukemia
# SNB-75 CNS = system: SNB-75 CNS
# MDA-MB-435 = system: MDA-MB-435
# CCRF-CEM leukemia = system: CCRF-CEM leukemia
smiles,measurement,setting,value
COc1cccc(C2c3cc4c(cc3OC(NNc3ccccc3)C2C)OCO4)c1O (configuration not stated),TGI,NCI-H460 lung,15.5 µM
same,TGI,SK-MEL-28 melanoma,24.7 µM
same,TGI,OVCAR-3 ovarian,8.36 µM
same,TGI,HL-60(TB) leukemia,12.9 µM
same,TGI,SNB-19 CNS,32.4 µM
same,TGI,HCC-2998 colon,6.47 µM
same,TGI,LOX IMVI melanoma,27.5 µM
same,TGI,SN12C renal,23.5 µM
same,TGI,HT29 colon,23.3 µM
same,TGI,OVCAR-5 ovarian,27.1 µM
same,TGI,RPMI-8226 leukemia,22.6 µM
same,TGI,SK-OV-3 ovarian,58.4 µM
same,TGI,COLO 205 colon,23.8 µM
same,TGI,PC-3 prostate,19.1 µM
same,TGI,UO-31 renal,16.6 µM
same,TGI,786-0 renal,23.2 µM
same,TGI,SK-MEL-2 melanoma,25.7 µM
same,TGI,M14 melanoma,19.3 µM
same,TGI,EKVX NSCLC,22.1 µM
same,TGI,UACC-62 melanoma,17.9 µM
same,TGI,SW-620 colon,25.5 µM
same,TGI,ACHN renal,15.5 µM
same,TGI,RXF 393 renal,29.6 µM
same,TGI,MOLT-4 leukemia,23.5 µM
same,TGI,NCI-H23 lung,28 µM
same,TGI,NCI-H522 lung,14.4 µM
same,TGI,SF-539 CNS,9.87 µM
same,TGI,NCI-H226 lung,29.6 µM
same,TGI,K-562 leukemia,11.9 µM
same,TGI,HCT-15 colon,12 µM
same,TGI,HOP-92 NSCLC,28.5 µM
same,TGI,MDA-MB-231 breast,27.9 µM
same,TGI,IGROV1 ovarian,25.5 µM
same,TGI,SF-268 CNS,42.4 µM
same,TGI,A498 renal,28.2 µM
same,TGI,OVCAR-8 ovarian,21.1 µM
same,TGI,HOP-62 NSCLC,8.14 µM
same,TGI,SF-295 CNS,10.5 µM
same,TGI,UACC-257 melanoma,17.7 µM
same,TGI,CAKI-1 renal,23.3 µM
same,TGI,A549 NSCLC,19.2 µM
same,TGI,MCF7 breast,19.6 µM
same,TGI,TK-10 renal,17.3 µM
same,TGI,MALME-3M melanoma,19.1 µM
same,TGI,KM12 colon,18.3 µM
same,TGI,MDA-N,8.59 µM
same,TGI,SK-MEL-5 melanoma,20 µM
same,TGI,HCT-116 colon,18 µM
same,TGI,DU-145 prostate,18.9 µM
same,TGI,T-47D breast,31.1 µM
same,TGI,HS 578T breast,34.5 µM
same,TGI,BT-549 breast,20.4 µM
same,TGI,U251 CNS,18.7 µM
same,TGI,SR leukemia,6.28 µM
same,TGI,SNB-75 CNS,47.4 µM
same,TGI,MDA-MB-435,12.5 µM
same,TGI,CCRF-CEM leukemia,21.7 µM
